Test results: US12365687B2 (Hoffmann-La Roche Inc., priority 2021, dated 2025)
Like-named read-outs stand apart in the source and are kept apart here.

Tests used:
[1] = target: human GABAA α2β2γ1 receptor (Homo sapiens (Human), UniProt P47869+Q8N1C3); test: Radioligand binding assay for γ1-containing GABAA subtypes, [3H]RO7239181 competition (α2β2γ1)
[2] = target: human GABAA α1β3γ2 receptor (Homo sapiens (Human), UniProt P14867+P18507); test: Radioligand binding assay for γ2-containing GABAA subtypes, [3H]Flumazenil competition (α1β3γ2); settings: for γ2/γ1 Selectivity Ratio: Ki α1β3γ2 (nM)/Ki α2β2γ1 (nM); for LogSel: Log[Ki α1β3γ2 (nM)/Ki α2β2γ1 (nM)]
[3] = target: human GABAA α5β2γ1 receptor (Homo sapiens (Human), UniProt P31644+Q8N1C3); test: Radioligand binding assay for γ1-containing GABAA subtypes, [3H]RO7239181 competition (α5β2γ1)
[4] = target: α2β2γ1 GABAA receptor subtype (Homo sapiens (Human), UniProt P47869+Q8N1C3); test: Two-electrode voltage clamp electrophysiology in Xenopus oocytes expressing GABAA receptors (modulation of GABA EC20 current); format: cell-based; settings: for Efficacy (GABA)%: % modulation of GABA EC20 = 100*(Fold increase-1), α2β2γ1 oocytes, compound at approx. 30-fold Ki; for Fold increase h-GABA-A α2β2γ1 oocyte @ 30-fold Ki: Xenopus oocytes expressing α2β2γ1, compound at approx. 30-fold its Ki α2β2γ1, GABA EC20 current
Summary of the method: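 Two-electrode voltage clamp at −80 mV, room temperature, 3-5 days after mRNA injection into oocytes. GABA applied at EC20 for 1.5 min, twice, with compound during second application; at least 3 oocytes per concentration. Efficacy = extremum of point-by-point current ratio, expressed as 100×(fold increase−1).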

[5] = Ki h-GABAA α2β2γ1, [3H]RO7239181 competition binding, human GABAA α2β2γ1
[6] = Ki h-GABAA α2β2γ1, displacement of [3H]RO7239181, membranes of HEK293F cells expressing human receptors, means of two determinations

SMILES | Ki [1, 5] [nM] | Ki [1, 6] [nM] | Ki [2] [nM] | γ2/γ1 Selectivity Ratio [2] | LogSel [2] | Ki [3] [nM] | Efficacy (GABA)% [4] [%] | Fold increase h-GABA-A α2β2γ1 oocyte @ 30-fold Ki [4] | Ki ([1]; Ki h-GABAA α2β2γ1, Table 3, reference compounds) [nM] | γ2/γ1 Selectivity Ratio ([2]; Table 3) | LogSel ([2]; Table 3) | Ki ([2]; read-out: Ki h-GABAA α1β3γ2, Table 3, reference compounds) [nM]
C[C@@H]1N=C(c2c(F)cccc2F)c2c(ccc(Cl)c2Cl)-n2cc(C(=O)N3CCC3)nc21 [Example 70, azetidin-1-yl-[(4S)-7,8-dichloro-6-(2,6-difluorophenyl)-4-methyl-4H-imidazo[1,2-a][1,4]benzodiazepin-2-yl]methanone] | 18.7 | 18.7 | 500 | 26.7 | 1.43 | 1.08 | 73 | 1.73 | – | – | – | –
COC1CN(C(=O)c2cn3c(n2)CN=C(c2c(F)cccc2F)c2c-3ccc(Cl)c2Cl)C1 [Example 2, (7,8-dichloro-6-(2,6-difluorophenyl)-4H-benzo[f]imidazo[1,2-a][1,4]diazepin-2-yl)(3-methoxyazetidin-1-yl)methanone] | 6.5 | 6.5 | 255 | 39.3 | 1.59 | 1.26 | 42 | 1.42 | – | – | – | –
CCNC(=O)c1nc2n(n1)-c1ccc(Cl)c(Cl)c1C(c1c(F)cccc1F)=N[C@H]2C [Example 64, (4S)-7,8-dichloro-6-(2,6-difluorophenyl)-N-ethyl-4-methyl-4H-[1,2,4]triazolo[1,5-a][1,4]benzodiazepine-2-carboxamide] | 5.4 | 5.4 | 889 | 165.6 | 2.22 | 1.16 | 75 | 1.75 | – | – | – | –
C[C@@H]1N=C(c2ncccc2F)c2c(ccc(C(F)(F)F)c2Cl)-n2nc(C(=O)N3CC4(CCCO4)C3)nc21 [Example 113, [(4S)-7-chloro-6-(3-fluoro-2-pyridyl)-4-methyl-8-(trifluoromethyl)-4H-[1,2,4]triazolo[1,5-a][1,4]benzodiazepin-2-yl]-(5-oxa-2-azaspiro[3,4]octan-2-yl)methanone] | 18.9 | 18.9 | 11400 | 604.3 | 2.78 | 7.04 | 76 | 1.76 | – | – | – | –
C[C@@H]1N=C(c2ncccc2F)c2c(ccc(Cl)c2Cl)-n2nc(C(=O)N3CC(OC(F)F)C3)nc21 [Example 90, [(4S)-7,8-dichloro-6-(3-fluoro-2-pyridyl)-4-methyl-4H-[1,2,4]triazolo[1,5-a][1,4]benzodiazepin-2-yl]-[3-(difluoromethoxy)azetidin-1-yl]methanone] | 21.8 | 21.8 | 4740 | 217.2 | 2.34 | 6.09 | 104 | 2.04 | – | – | – | –
[2H]C([2H])([2H])NC(=O)c1nc2n(n1)-c1ccc(Cl)c(Cl)c1C(c1c(F)cccc1F)=N[C@H]2C [Example 20, (4S)-7,8-dichloro-6-(2,6-difluorophenyl)-4-methyl-N-(trideuteriomethyl)-4H-[1,2,4]triazolo[1,5-a][1,4]benzodiazepine-2-carboxamide] | 5.2 | 5.24 | 593 | 113.1 | 2.05 | 0.89 | 78 | 1.78 | – | – | – | –
COC1CN(C(=O)c2nc3n(n2)-c2ccc(C(F)(F)F)c(Cl)c2C(c2c(F)cccc2F)=NC3)C1 [Example 37, [7-chloro-6-(2,6-difluorophenyl)-8-(trifluoromethyl)-4H-[1,2,4]triazolo[1,5-a][1,4]benzodiazepin-2-yl]-(3-methoxyazetidin-1-yl)methanone] | 4.5 | 4.49 | 772 | 171.8 | 2.24 | 1.8 | 47 | 1.47 | – | – | – | –
CN(C)C(=O)c1nc2n(n1)-c1ccc(Cl)c(Cl)c1C(c1c(F)cccc1F)=NC2 [Example 9, 7,8-dichloro-6-(2,6-difluorophenyl)-N,N-dimethyl-4H-[1,2,4]triazolo[1,5-a][1,4]benzodiazepine-2-carboxamide] | 5.5 | 5.5 | 989 | 179.8 | 2.25 | 1.15 | 123 | 2.23 | 5.5 | 179.8 | 2.25 | 989
C[C@@H]1N=C(c2c(F)cccc2F)c2c(ccc(Cl)c2Cl)-n2nc(C(=O)N3CC[C@H](O)C3)nc21 [Example 43, [(4S)-7,8-dichloro-6-(2,6-difluorophenyl)-4-methyl-4H-[1,2,4]triazolo[1,5-a][1,4]benzodiazepin-2-yl]-[(3S)-3-hydroxypyrrolidin-1-yl]methanone] | 4.7 | 4.75 | 837 | 176.3 | 2.25 | 1.26 | 71 | 1.71 | – | – | – | –
CC1CN(C(=O)c2nc3n(n2)-c2ccc(C(F)(F)F)c(Cl)c2C(c2ncccc2F)=N[C@H]3C)C1 [Example 135, [(4S)-7-chloro-6-(3-fluoro-2-pyridyl)-4-methyl-8-(trifluoromethyl)-4H-[1,2,4]triazolo[1,5-a][1,4]benzodiazepin-2-yl]-(3-methylazetidin-1-yl)methanone] | 50.6 | 50.6 | > 30000 | 592.7 | 2.77 | 9.35 | 118 | 2.18 | – | – | – | –
C[C@@H]1N=C(c2ncccc2F)c2c(ccc(Cl)c2Cl)-n2nc(C(=O)N3CC4(CCCO4)C3)nc21 [Example 97, [(4S)-7,8-dichloro-6-(3-fluoro-2-pyridyl)-4-methyl-4H-[1,2,4]triazolo[1,5-a][1,4]benzodiazepin-2-yl]-(5-oxa-2-azaspiro[3.4]octan-2-yl)methanone] | 14.8 | 14.8 | 3590 | 242.0 | 2.38 | 8.64 | 95 | 1.95 | – | – | – | –
C[C@@H]1N=C(c2ncccc2F)c2c(ccc(C(F)(F)F)c2Cl)-n2nc(C(=O)N3CCS(=O)(=O)CC3)nc21 [Example 124, [(4S)-7-chloro-6-(3-fluoro-2-pyridyl)-4-methyl-8-(trifluoromethyl)-4H-[1,2,4]triazolo[1,5-a][1,4]benzodiazepin-2-yl]-(1,1-dioxo-1,4-thiazinan-4-yl)methanone] | 26.2 | 26.2 | 14400 | 547.2 | 2.74 | 6.32 | 145 | 2.45 | – | – | – | –
C[C@@H]1N=C(c2ncccc2F)c2c(ccc(C(F)(F)F)c2Cl)-n2cc(C(=O)NC[C@@H](C)O)nc21 [Example 157, (4S)-7-chloro-6-(3-fluoro-2-pyridyl)-4-methyl-N-[(2R)-2-hydroxypropyl]-8-(trifluoromethyl)-4H-imidazo[1,2-a][1,4]benzodiazepine-2-carboxamide] | 60.1 | 60 | 11100 | 185.8 | 2.27 | 13.4 | 191 | 2.91 | – | – | – | –
[2H]C([2H])([2H])OC1CN(C(=O)c2nc3n(n2)-c2ccc(Cl)c(Cl)c2C(c2c(F)cccc2F)=N[C@H]3C)C1 [Example 17, [(4S)-7,8-dichloro-6-(2,6-difluorophenyl)-4-methyl-4H-[1,2,4]triazolo[1,5-a][1,4]benzodiazepin-2-yl]-[3-(trideuteriomethoxy)azetidin-1-yl]methanone] | 2.6 | 2.59 | 579 | 223.3 | 2.35 | 1.3 | 44 | 1.44 | – | – | – | –
CCOC1CN(C(=O)c2cn3c(n2)[C@H](C)N=C(c2ncccc2F)c2c-3ccc(C(F)(F)F)c2Cl)C1 [Example 158, (3-ethoxyazetidin-1-yl)-[(4S)-7-chloro-6-(3-fluoro-2-pyridyl)-4-methyl-8-(trifluoromethyl)-4H-imidazo[1,2-a][1,4]benzodiazepin-2-yl]methanone] | 94.6 | 94.1 | > 30000 | 318.9 | 2.50 | 21.7 | 144 | 2.44 | – | – | – | –
